Measurements: ChEMBL document CHEMBL5357083 (ACS Med Chem Lett, 2024)

Assays:
in vitro [1] = conditions: mouse, liver microsomes
in vitro [2] = conditions: dog, MDCK-MDR1

Brc1ccc2[nH]nc(C3=CCCNC3)c2c1
CLhep predicted at […], 1 µM (in vitro [1]): 57 mL/min/kg
Papp A→B at 5 µM (in vitro [2]): 7.9 ×10⁻⁶ cm/s
